From patent US11203777B2, “Method of preparing sterilized compositions for stabilization of extracellular nucleic acids” (Qiagen GmbH, priority 2015, dated 2021)
Each block holds one compound with its values, some of them ahead of it. Residues, ends and D or L forms follow the SMILES beside them. *: point of attachment. Cbz = O=C(OCc1ccccc1)*; CH2F = FC*

How the values were obtained:
[1] = test system: ccfDNA level in whole blood (66 bp and 500 bp fragments of the 18S rDNA gene); test: ccfDNA stabilization in stored whole blood, real time PCR of 18S rDNA fragments in plasma; details: for copy numbers of the 500 bp fragment of the 18S rDNA gene: caspase inhibitor approx. 5 μM in stabilized blood; for change of copy numbers (x fold change) of 66 bp and 500 bp fragments of the 18S rDNA gene: 6 days at room temperature, FIG. 3
Experimental: Blood was drawn into Alpha BCT for stabilization of the ccfDNA level. 10 ml spray dried EDTA tubes (BD) with 1.8 mg K2EDTA per ml of whole blood served as non-stabilized negative control. Blood and reagents were mixed by inverting the tube ten times. Stabilized and non-stabilized blood samples were stored at room temperature standing in an upright position.
Whole blood samples were centrifuged at ambient temperature for 15 min at 1.900×g. The clear plasma fraction was transferred into a fresh centrifuge tube. In a second round, plasma samples were centrifuged for 10 min at 16.000×g in case of non-stabilized EDTA-blood or for 10 min at 1.900×g in case of stabilized Alpha BCT blood. The supernatant was transferred into a new tube and used either directly for the purification of ccfDNA or stored at −20° C. until use.
DNA from plasma was isolated with the QIAamp circulating nucleic acid kit (QIAGEN GmbH), using the protocol for purification of circulating nucleic acids from 1 ml, 2 ml, or 3 ml serum or plasma. If not stated otherwise, 2 ml of plasma was mixed with proteinase K and lysis buffer ACL, incubated for 30 min at 60° C., mixed with buffer ACB, bound on QIAamp Mini columns with the use of a QIAvac 24 Plus vacuum manifold, washed and eluted with 60 μl elution buffer AVE, according to the manufactures recommendations.
ccfDNA from 2 ml plasma was isolated with a preliminary version of the QIAsymphony Circulating DNA protocol and kit (QIAGEN). If not stated otherwise, the QIAsymphony robot mixed 2 ml of plasma with proteinase K, binding buffer and magnetic beads. Beads with bound DNA were washed three times and DNA was eluted using 60 μl elution buffer.
To measure the amount of ccfDNA, a real time PCR assay on Abi Prism HT7900 (Life Technologies) was performed with 3 μl of eluate. In a 20 μl assay volume using QuantiTect Multiplex PCR Kit reagents (QIAGEN GmbH), two fragments of the human 18S rDNA gene were amplified in a multiplex PCR. Total quantification was achieved by comparison with a standard curve generated with human genomic DNA diluted from 3000 to 0.3 genome equivalents (1 genome equivalent equates to around 6.6 μg of human genomic DNA).
Quantification of the 66 bp fragment was used to reflect the total amount of 18S rDNA copies in the plasma. Quantification of the 500 bp was used to determine the amount of 18S rDNA copies which derived from apoptotic or mechanically lysed leukocytes from whole blood. […] The increase of copy numbers from the 500 bp fragment between day 0 and 3 or 6 days storage, was used as a measurement of stability efficiency.
PAXgene Blood ccfDNA Alpha tubes were produced and sterilized by gamma irradiation with different energy levels. Samples of 10 ml whole blood from eight donors were collected in 10 ml spray dry K2EDTA tubes (non-stabilized controls) and in PAXgene Blood ccfDNA Alpha tubes. Plasma was generated from 5 ml of stabilized or non-stabilized blood samples directly after blood draw. Residual blood was stored for additional 6 days at room temperature before plasma generation. ccfDNA was purified manually from 2 ml plasma, copy numbers of 18S rDNA gene were determined in triplicates by real time PCR.
Samples of 10 ml whole blood from eight donors were collected in 10 ml spray dry K2EDTA tubes. Directly after blood draw, non-stabilized blood samples were stabilized by addition of 1.7 ml of a ccfDNA stabilization reagent according to PCT/EP2015/055699 with or without addition of the different compounds tested for their impact on extracellular nucleic acid stabilization.
Plasma was generated from 5 ml of stabilized blood samples directly after the blood draw (day 0).

[2] = HPLC quantification of caspase inhibitor in stabilization reagent before and after gamma irradiation; type: physicochemical; details: for [Casp] (Pre-Irr) / [Casp] (Post-Irr): 50 ml bulk; for [Casp] (Post-Irr): 25 kGy
Experimental: Caspase inhibitor (Q-VD-OPh) was dissolved and diluted in DMSO for generation of a standard curve. Concentrations of 7.5, 15, 30 and 60 μg/ml were used to generate the standard curve.
Stabilization reagents containing a mixture of caspase inhibitor, EDTA, DMPA and PEG were tested before and after gamma irradiation. Unique peaks for caspase inhibitor were identified and compared to the standard curve for total quantification of caspase inhibitor. The concentration of caspase inhibitor was determined before and after irradiation, and these concentrations were compared for relative quantification.
For the production of PAXgene Blood ccfDNA Alpha blood collection tubes (Alpha BCT), BD standard tubes for 10 ml blood draw were filled with 1.3-1.7 ml ccfDNA stabilization reagent. The exemplary stabilization reagents tested comprised a mixture of caspase inhibitor (Q-VD-OPh), K2EDTA, DMPA, PEG300 and PEG10000, according to PCT/EP2015/055699. A vacuum was applied to the tubes to allow for a 10.25 ml blood draw. Tubes were sterilized by gamma irradiation using Cobalt-60 as energetic gamma ray source in a range of 5 to 35 kGy. […]
Stabilization reagents were produced with or without the addition of radical scavengers and sterilized in bulk by gamma irradiation. The caspase inhibitor concentration was measured by HPLC before and after irradiation to determine the effect of scavenger addition on caspase inhibitor degradation during sterilization by gamma irradiation.
Stabilization reagents according to PCT/EP2015/055699 were produced with or without the addition of radical scavengers in different concentrations and with different concentrations of caspase inhibitor. PAXgene Blood ccfDNA Alpha tubes were produced by filling 1.7 ml of the respective stabilization reagent into a standard Vacutainer. Tubes were sterilized by gamma irradiation with different energy levels. The caspase inhibitor concentration was measured by HPLC before and after irradiation (see Table 7 below).

[3] = scavenger 5-10 mg/ml, 0.5-1% (w/v)
[4] = scavenger 1 mg/ml, casp-inh. 5 μM, 0 kGy
[5] = scavenger 1 mg/ml, casp-inh. 5 μM, 20 kGy
[6] = scavenger 1 mg/ml, casp-inh. 5 μM, 30 kGy
[7] = 6 donors, 5 days at room temperature, FIG. 10
[8] = scavenger 0.1-1 mg/ml, 0.01-0.1% (w/v)
[9] = scavenger 0.5-10 mg/ml, 0.05-1% (w/v)

SMILES: O=C1O[C@H]([C@@H](O)CO)C(O)=C1O [Ascorbic acid]
average total copy numbers of the 500 bp fragment of the 18S rDNA gene ([1]; scavenger 20 mg/ml, directly after blood collection, FIG. 5): reduced ccfDNA absolute copy numbers | Effect on ccfDNA stability [1, 3]: neutral | HPLC Testing [C-Inh] [2, 4]: 18.2 µg/mL | HPLC Testing [C-Inh] [2, 5]: 7.0 µg/mL | HPLC Testing [C-Inh] [2, 6]: 5.0 µg/mL | HPLC Testing [C-Inh] ([2]; scavenger 2 mg/ml, casp-inh. 5 μM, 10 kGy): 15.2 µg/mL | HPLC Testing [C-Inh] ([2]; scavenger 2 mg/ml, casp-inh. 5 μM, 20 kGy): 10.7 µg/mL | HPLC Testing [C-Inh] ([2]; scavenger 2 mg/ml, casp-inh. 5 μM, 30 kGy): 9.5 µg/mL | [Casp] (Pre-Irr) ([2]; scavenger 5 mg/ml-27.5 mM): 16.522 µg/mL | [Casp] (Post-Irr) ([2]; scavenger 5 mg/ml-27.5 mM): 12.5986 µg/mL | HPLC Testing [C-Inh] ([2]; scavenger 5 mg/ml, casp-inh. 5 μM, 0 kGy): 19.2 µg/mL | HPLC Testing [C-Inh] ([2]; scavenger 5 mg/ml, casp-inh. 5 μM, 10 kGy): 16.0 µg/mL | HPLC Testing [C-Inh] ([2]; scavenger 5 mg/ml, casp-inh. 5 μM, 20 kGy): 12.8 µg/mL | HPLC Testing [C-Inh] ([2]; scavenger 5 mg/ml, casp-inh. 5 μM, 30 kGy): 12.1 µg/mL | HPLC Testing [C-Inh] ([2]; scavenger 5 mg/ml, casp-inh. 10 μM, 0 kGy): 37.7 µg/mL | HPLC Testing [C-Inh] ([2]; scavenger 5 mg/ml, casp-inh. 10 μM, 10 kGy): 31.2 µg/mL | HPLC Testing [C-Inh] ([2]; scavenger 5 mg/ml, casp-inh. 10 μM, 20 kGy): 26.8 µg/mL | HPLC Testing [C-Inh] ([2]; scavenger 5 mg/ml, casp-inh. 10 μM, 30 kGy): 23.7 µg/mL | HPLC Testing [C-Inh] ([2]; scavenger 5 mg/ml, casp-inh. 15 μM, 0 kGy): 55.5 µg/mL | HPLC Testing [C-Inh] ([2]; scavenger 5 mg/ml, casp-inh. 15 μM, 10 kGy): 46.4 µg/mL | HPLC Testing [C-Inh] ([2]; scavenger 5 mg/ml, casp-inh. 15 μM, 20 kGy): 40.6 µg/mL | HPLC Testing [C-Inh] ([2]; scavenger 5 mg/ml, casp-inh. 15 μM, 30 kGy): 35.5 µg/mL | HPLC Testing [C-Inh] ([2]; scavenger 10 mg/ml, casp-inh. 5 μM, 0 kGy): 18.4 µg/mL | HPLC Testing [C-Inh] ([2]; scavenger 10 mg/ml, casp-inh. 5 μM, 10 kGy): 16.0 µg/mL | HPLC Testing [C-Inh] ([2]; scavenger 10 mg/ml, casp-inh. 5 μM, 20 kGy): 13.5 µg/mL | Protection against gamma irradiation [2, 3]: high

SMILES: COC(=O)CC(NC(=O)OC(C)(C)C)C(=O)CF [Boc-D-(OMe)-FMK]
copy numbers of the 500 bp fragment of the 18S rDNA gene [1, 7]: comparable to the fragment numbers in blood stabilized with the PAXgene Blood ccfDNA Tube

SMILES: O=C(O)c1cc(O)c(O)c(O)c1 [Gallic acid]
change of copy numbers (x fold change) of 66 bp and 500 bp fragments of the 18S rDNA gene ([1]; scavenger 2 mg/ml in non-irradiated reagent, 8 donors): lead to an increased release of DNA | [Casp] (Pre-Irr) ([2]; scavenger 500 μg/ml-2.9 mM): 16.633 µg/mL | [Casp] (Post-Irr) ([2]; scavenger 500 μg/ml-2.9 mM): 0.5888 µg/mL | Protection against gamma irradiation ([2]; scavenger 0.5-2 mg/ml, 0.2% (w/v)): none

SMILES: O=C(OC[C@H]1O[C@@H](OC(=O)c2cc(O)c(O)c(OC(=O)c3cc(O)c(O)c(O)c3)c2)[C@H](OC(=O)c2cc(O)c(O)c(OC(=O)c3cc(O)c(O)c(O)c3)c2)[C@@H](OC(=O)c2cc(O)c(O)c(OC(=O)c3cc(O)c(O)c(O)c3)c2)[C@@H]1OC(=O)c1cc(O)c(O)c(OC(=O)c2cc(O)c(O)c(O)c2)c1)c1cc(O)c(O)c(OC(=O)c2cc(O)c(O)c(O)c2)c1 [Tannic acid]
change of copy numbers (x fold change) of 66 bp and 500 bp fragments of the 18S rDNA gene ([1]; scavenger 1 mg/ml in non-irradiated reagent, 8 donors): lead to an increased release of DNA

SMILES: COC(=O)C[C@H](NC(=O)[C@H](C)NC(=O)[C@@H](NC(=O)OCc1ccccc1)C(C)C)C(=O)CF [Z-VAD (OMe)-FMK, Z-Val-Ala-Asp(OMe)-FMK] (Cbz-Val-Ala-Asp(OMe)-CH2F)
copy numbers of the 500 bp fragment of the 18S rDNA gene [1, 7]: comparable to the fragment numbers in blood stabilized with the PAXgene Blood ccfDNA Tube

SMILES: Cc1ncc(CO)c(CO)c1O [vitamin B6, pyridoxine]
number of 500 bp fragments of the 18S rDNA gene compared to the stabilization reagent without scavenger (irradiated) ([1]; 2 mg/ml in reagent, irradiated (30 kGy) as well as unirradiated, 8 donors, 5 days at room temperature, FIG. 9): only half

More lines, main results first:

HPLC Testing [C-Inh] ([2]; scavenger 0.05 mg/ml, casp-inh. 5 μM, 0 kGy): 19.1 µg/mL | HPLC Testing [C-Inh] ([2]; scavenger 0.05 mg/ml, casp-inh. 5 μM, 10 kGy): 14.1 µg/mL | HPLC Testing [C-Inh] ([2]; scavenger 0.05 mg/ml, casp-inh. 5 μM, 20 kGy): 8.9 µg/mL | HPLC Testing [C-Inh] ([2]; scavenger 0.05 mg/ml, casp-inh. 5 μM, 30 kGy): 6.6 µg/mL | [Casp] (Pre-Irr) ([2]; scavenger 100 μg/ml-320 μM): 16.454 µg/mL | [Casp] (Post-Irr) ([2]; scavenger 100 μg/ml-320 μM): 10.4422 µg/mL | HPLC Testing [C-Inh] ([2]; scavenger 0.1 mg/ml, casp-inh. 5 μM, 0 kGy): 18.8 µg/mL | HPLC Testing [C-Inh] ([2]; scavenger 0.1 mg/ml, casp-inh. 5 μM, 10 kGy): 14.3 µg/mL | HPLC Testing [C-Inh] ([2]; scavenger 0.1 mg/ml, casp-inh. 5 μM, 20 kGy): 9.9 µg/mL | HPLC Testing [C-Inh] ([2]; scavenger 0.1 mg/ml, casp-inh. 5 μM, 30 kGy): 7.5 µg/mL | HPLC Testing [C-Inh] ([2]; scavenger 0.1 mg/ml, casp-inh. 10 μM, 0 kGy): 37.9 µg/mL | HPLC Testing [C-Inh] ([2]; scavenger 0.1 mg/ml, casp-inh. 10 μM, 10 kGy): 29.4 µg/mL | HPLC Testing [C-Inh] ([2]; scavenger 0.1 mg/ml, casp-inh. 10 μM, 20 kGy): 23.3 µg/mL | HPLC Testing [C-Inh] ([2]; scavenger 0.1 mg/ml, casp-inh. 10 μM, 30 kGy): 17.7 µg/mL | HPLC Testing [C-Inh] ([2]; scavenger 0.1 mg/ml, casp-inh. 15 μM, 0 kGy): 55.5 µg/mL | HPLC Testing [C-Inh] ([2]; scavenger 0.1 mg/ml, casp-inh. 15 μM, 10 kGy): 42.7 µg/mL | HPLC Testing [C-Inh] ([2]; scavenger 0.1 mg/ml, casp-inh. 15 μM, 20 kGy): 33.2 µg/mL | HPLC Testing [C-Inh] ([2]; scavenger 0.1 mg/ml, casp-inh. 15 μM, 30 kGy): 25.0 µg/mL | HPLC Testing [C-Inh] ([2]; scavenger 0.2 mg/ml, casp-inh. 5 μM, 0 kGy): 19.9 µg/mL | HPLC Testing [C-Inh] ([2]; scavenger 0.2 mg/ml, casp-inh. 5 μM, 20 kGy): 11.9 µg/mL | HPLC Testing [C-Inh] ([2]; scavenger 0.2 mg/ml, casp-inh. 5 μM, 30 kGy): 10.2 µg/mL | HPLC Testing [C-Inh] ([2]; scavenger 0.5 mg/ml, casp-inh. 5 μM, 10 kGy): 15.4 µg/mL | HPLC Testing [C-Inh] ([2]; scavenger 0.5 mg/ml, casp-inh. 5 μM, 20 kGy): 12.3 µg/mL | HPLC Testing [C-Inh] ([2]; scavenger 0.5 mg/ml, casp-inh. 5 μM, 30 kGy): 11.1 µg/mL | HPLC Testing [C-Inh] [2, 4]: 20.0 µg/mL | HPLC Testing [C-Inh] [2, 5]: 13.8 µg/mL | HPLC Testing [C-Inh] [2, 6]: 12.6 µg/mL | Protection against gamma irradiation [2, 8]: high
SMILES: N[C@@H](CCC(=O)N[C@@H](CS)C(=O)NCC(=O)O)C(=O)O [Glutathione]
Effect on ccfDNA stability [1, 8]: neutral

Protection against gamma irradiation ([2]; scavenger 1% (v/v)): none | [Casp] (Pre-Irr) ([2]; scavenger 1%): 16.572 µg/mL | [Casp] (Post-Irr) ([2]; scavenger 1%): 0.8517 µg/mL
SMILES: CC(C)O [Isopropanol]

Protection against gamma irradiation ([2]; scavenger 5 mg/ml, 0.5% (w/v)): none | [Casp] (Pre-Irr) ([2]; scavenger 0.5%): 16.554 µg/mL | [Casp] (Post-Irr) ([2]; scavenger 0.5%): 1.0667 µg/mL
SMILES: OC[C@@H](O)[C@@H](O)[C@H](O)[C@H](O)CO [Mannitol]

[Casp] (Pre-Irr) ([2]; scavenger 2 mg/ml-12 mM): 16.468 µg/mL | [Casp] (Post-Irr) ([2]; scavenger 2 mg/ml-12 mM): 14.1849 µg/mL | Protection against gamma irradiation [2, 9]: high
SMILES: CC(=O)N[C@@H](CS)C(=O)O [N-acetyl-L-cysteine]
protection of caspase inhibitors from gamma-irradiation (copy numbers of the 500 bp fragment) ([1]; 0.5 mg/ml in reagent, 30 kGy, 6 donors, 5 days at room temperature, FIG. 10): efficiently protected the caspase inhibitors Boc-D-(OMe)-FMK and Z-VAD (OMe)-FMK from gamma-irradiation | Effect on ccfDNA stability [1, 9]: neutral

[Casp] (Pre-Irr) ([2]; scavenger 4 mM): 16.534 µg/mL | [Casp] (Post-Irr) ([2]; scavenger 4 mM): 3.0195 µg/mL | [Casp] (Pre-Irr) ([2]; scavenger 5 mM in DMSO): 16.649 µg/mL | [Casp] (Post-Irr) ([2]; scavenger 5 mM in DMSO): 3.3548 µg/mL
SMILES: Cc1c(C)c2c(c(C)c1O)CCC(C)(C(=O)O)O2 (stereo not drawn) [Trolox, 6-hydroxy-2,5,7,8-tetramethylchromane-2-carboxylic acid]

[Casp] (Pre-Irr) ([2]; scavenger 0.6 mM): 16.550 µg/mL | [Casp] (Post-Irr) ([2]; scavenger 0.6 mM): 0.8856 µg/mL | Protection against gamma irradiation ([2]; scavenger 0.74 mg/ml, 0.07% (v/v)): none
SMILES: CCCCCCCC/C=C\CCCCCCCC(=O)OCCOCC(OCCO)C1OCC(OCCO)C1OCCO (stereo not drawn) [Tween-80]
